Measured values taken from the PolyMetriX glass transition set.
± gives the standard deviation of the reports.

Row | SMILES | glass transition temperature [°C]
1 | *c1ccc(NC(=O)Cc2ccc(-c3sc(-c4ccc(CC(=O)Nc5ccc(-c6sc(*)c(-c7ccccc7)c6-c6ccccc6)cc5)cc4)c(-c4ccccc4)c3-c3ccccc3)cc2)cc1 (repeat unit) | 273.00
2 | *Oc1cc(Cl)cc(Cl)c1* (repeat unit) | 165.00
3 | *CC/C(=C(/*)c1ccccc1)c1ccccc1 (repeat unit) | 120.50
4 | *CCN(*)C(=O)CCC (repeat unit) | 42.00
5 | *O[Si](*)(C)CCCCCCn1c2ccccc2c2ccccc21 (repeat unit) | -5.00
6 | */C=C/c1ccc(/C=C/[Si](C)(CCC(F)(F)F)c2cccc([Si](*)(C)CCC(F)(F)F)c2)cc1 (repeat unit) | 23.40
7 | *CC(*)c1ccccc1O (repeat unit) | 172.00
8 | *CCCP(CCCCCCCC)CCCNC(=O)CCCCC(=O)N* (repeat unit) | 12.00
9 | *CCCCCCN(C)C(=O)CCC(=O)N(*)C (repeat unit) | 7.50
10 | *CC(*)CCCCCCC (repeat unit) [Poly(heptylethylene)] | -47.58 ± 0.8
11 | *O[Si](C)(C)c1ccc([Si](C)(C)O[SiH](*)CCC(F)(F)F)cc1 (repeat unit) | -37.00
12 | *=NP(=NP(=NC(=*)Oc1ccc(C(C)(C)C)cc1)(Oc1ccc(C(C)(C)C)cc1)Oc1ccc(C(C)(C)C)cc1)(Oc1ccc(C(C)(C)C)cc1)Oc1ccc(C(C)(C)C)cc1 (repeat unit) | 74.00
13 | *CC(*)OC(=O)C(C)(C(C)C)C(C)C (repeat unit) | 120.00
14 | */C=C(\C#N)C(=O)OCCCCCCCCCCOC(=O)/C(C#N)=C/c1ccc2c(c1)c1cc(*)ccc1n2CCCCCCC (repeat unit) | 59.00
15 | *O[Si](C)(C)O[Si](C)(C)O[Si](C)(C)c1ccc([Si](*)(C)C)cc1 (repeat unit) | -62.00
16 | *CC(C)C(C)COC(=O)c1ccc(C(=O)O*)cc1 (repeat unit) | 37.50
17 | *NC(CCC(=O)OCCC)C(*)=O (repeat unit) | -10.00
18 | *CC(*)(CC)C(=O)OCC (repeat unit) | 27.00
19 | *c1ccc(-c2nnc(*)o2)c(OCCCCC)c1 (repeat unit) | 205.00
20 | *c1ccc(-c2cc(CCCCCCOC(=O)COc3ccccc3)c(*)s2)s1 (repeat unit) | 79.00
21 | *CC(*)C(=O)OCC(C)(C)C (repeat unit) | 22.00
22 | *CCCCNC(=O)Cc1ccc(C(=O)N*)cc1 (repeat unit) | 84.00
23 | *Oc1ccc(S(=O)(=O)c2ccc(Oc3c(C)cc(C(c4cc(C)c(*)c(C)c4)(C(F)(F)F)C(F)(F)F)cc3C)cc2C(OC)(C(F)(F)F)C(F)(F)F)c(C(OC)(C(F)(F)F)C(F)(F)F)c1 (repeat unit) | 163.00
24 | *CC(*)C(=O)Nc1ccc(C(=O)/C=C/c2cccc(Br)c2)cc1 (repeat unit) | 55.00
25 | *CC(*)c1ccccc1COC (repeat unit) | 89.00
26 | *CCCCCCCCCCOc1ccc(/C=C2\CC/C(=C\c3ccc(OCCCCCCCCCCOP(=O)(O*)OCC)c(OC)c3)C2=O)cc1OC (repeat unit) | 47.00
27 | *CC1CCCC(Cn2c(=O)c3cc4c(=O)n(*)c(=O)c4cc3c2=O)C1 (repeat unit) | 263.00

Second part, the molecule after the results:

Row | glass transition temperature [°C] | SMILES
28 | 266.00 | *Oc1ccc(C(=O)Nc2ccc(C(c3ccc(NC(=O)c4ccc(OC(=O)c5ccc(C(*)=O)cc5)cc4)cc3)(C(F)(F)F)C(F)(F)F)cc2)cc1 (repeat unit)
29 | 141.50 | *Oc1c(F)c(F)c(Sc2c(F)c(F)c(Oc3ccc(C(c4ccc(*)cc4)(C(F)(F)F)C(F)(F)F)cc3)c(F)c2F)c(F)c1F (repeat unit)
30 | 119.00 | *CCN(CCOC(=O)c1ccc(C(=O)O*)c(OCCC)c1)c1ccc(-c2nc3ccc([N+](=O)[O-])cc3o2)cc1 (repeat unit)
31 | 120.00 | *Oc1cccc(NC(=O)CCCCCCCC(=O)Nc2ccc(*)cc2)c1 (repeat unit)
32 | 300.00 | *c1ccc(-c2ccc(-c3ccc(-c4cc(-c5ccccc5)c5cc(Oc6ccc7nc(*)cc(-c8ccccc8)c7c6)ccc5n4)cc3)cc2)cc1 (repeat unit)
33 | 245.00 | *c1ccc(OC(=O)c2cccc(C(=O)Oc3ccc(-c4nc5ccccc5nc4*)cc3)c2)cc1 (repeat unit)
34 | 95.00 | *CCOC(=O)c1ccc(C(C)(CC)c2ccc(C(=O)O*)cc2)cc1 (repeat unit)
35 | 114.00 | *Sc1ccc(Nc2ccc(Nc3ccc(*)cc3)cc2)cc1 (repeat unit)
36 | 210.00 | *Oc1ccc(Oc2ccc(S(=O)(=O)c3ccc(*)cc3)cc2)cc1 (repeat unit)
37 | 92.00 | *OCCOC(=O)c1cccc(C(=O)OCCOc2nc(-c3ccc(OCCCC)cc3)nc(*)c2-c2ccc(OC)cc2)c1 (repeat unit)
38 | 177.00 | *Nc1cc(NC(=O)c2cc(OCCN(C)c3ccc([N+](=O)[O-])cc3)cc(C(*)=O)c2)cc(C(=O)OC)c1 (repeat unit)
39 | 360.00 | *c1cccc(S(=O)(=O)c2cccc(-n3c(=O)c4cc5c(=O)n(*)c(=O)c5cc4c3=O)c2)c1 (repeat unit)
40 | 160.00 | *c1ccc(NC(=O)CCCCCCCCCCC(=O)Nc2ccc(S(*)(=O)=O)cc2)cc1 (repeat unit)
41 | 235.00 | *C(=O)NCCNC(=O)c1ccc(N2C(=O)c3ccc(*)cc3C2=O)cc1 (repeat unit)
42 | 33.00 | *Oc1ccc(CC(NC(=O)CCc2ccc(OC(=O)CCCCCCCCC(*)=O)cc2)C(=O)OCC(C)C)cc1 (repeat unit)
43 | 74.00 | *C(=O)OCCCCCCCCCCCCOC(=O)c1ccc(NC(=O)c2ccc(N3C(=O)c4ccc(*)cc4C3=O)cc2)cc1 (repeat unit)
44 | 142.00 | *OS(=O)(=O)c1cc(S(=O)(=O)Oc2ccc(C3(c4ccc(*)cc4)CCCCC3)cc2)ccc1C (repeat unit)
45 | 128.00 | *Oc1ccc(OC(=O)c2cccc(Sc3ccc(OC(=O)c4ccc(C(=O)Oc5ccc(Sc6cccc(C(*)=O)c6)cc5)cc4)cc3)c2)cc1-c1ccccc1 (repeat unit)
46 | 242.00 | *CC(=O)Nc1ccc(Oc2ccc(Oc3ccc(NC(=O)c4ccc5c(c4)C(=O)N(*)C5=O)cc3)cc2)cc1 (repeat unit)
47 | 100.00 | *CC(O)COc1ccc(C(C)(C)c2ccc(OCC(O)COc3c(C)cc(C(C)(C)c4cc(C)c(O*)c(C)c4)cc3C)cc2)cc1 (repeat unit)
48 | 49.00 | *CC(*)(C)C(=O)OCCCCCCOc1ccc(C(=O)Oc2ccc(OCCCC)cc2)cc1 (repeat unit)
49 | 279.00 | *c1ccc2c(c1)C(=O)N(c1ccc(Oc3ccc(Oc4ccc(N5C(=O)c6ccc(C(*)(C(F)(F)F)C(F)(F)F)cc6C5=O)cc4)cc3)cc1)C2=O (repeat unit)
50 | 352.00 | *c1ccc2c(c1)C(=O)N(c1ccc(-c3ccc(N4C(=O)c5ccc(C(*)(C(F)(F)F)C(F)(F)F)cc5C4=O)c(C)c3)cc1C)C2=O (repeat unit)
